These results are taken from publication PMC4503256 (Biopharmaceutics & drug disposition, 2012).

Read-outs that look alike come from different tables or passages of the source. Marks after values point to notes of the source that are not given here. Bounds are passed on as bounds.

The conditions of data set [1]: cited from earlier work.
The format of data set [2] is physicochemical. To be noted: sodium acetate buffer 50 mM, pH 4.5, isotonic; unpublished data.
Data set [3] can be described thus: In vitro partitioning experiments in two-phase dissolution apparatus. Format: physicochemical.
The conditions of data set [4]: measured value; cited from earlier work.
For data set [5] the following is noted: measured value; cited from earlier work. This is another data set of the same source.
For data set [6] the following is noted: cited from earlier work; for Log D: measured value.

Regarding `Cc1nccn1CC1CCc2c(c3ccccc3n2C)C1=O` (stereo not drawn) [Ondansetron], the “Fa (fraction absorbed in vivo), actual” value in data set [1] (humans, oral solutions) is reported as 1.
As to `CC(C)Cc1ccc(C(C)C(=O)O)cc1` (stereo not drawn) [Ibuprofen], in data set [2], the “Dissolution rates of particles, buffer versus buffer saturated with 1-octanol” value is on record as “no difference”. Also, the “Best-fit PI for all conditions” value in data set [3] (Apparatus 1, experiments 3–6 (pH 1.5–6.3), 77 rpm, range of 2.2–4.8 × 10^−3) amounted to 3000 ×10⁻⁶ cm/s. Further, the “PI × 10^4 (best fit)” value in data set [3] (Exp. 3, Fig 3(a), Apparatus 1, pH 1.5, 77 rpm, A/Va 0.42 cm^−1, MT/Va 16.7 μg/ml) is recorded as 23.71 cm/s × 10^4; in data set [3] (Exp. 4, Fig 3(b), Apparatus 1, pH 4.3, 77 rpm, A/Va 0.42 cm^−1, MT/Va 16.7 μg/ml), 30.06 cm/s × 10^4; in data set [3] (Exp. 5, Fig 3(c), Apparatus 1, pH 4.4, 77 rpm, A/Va 0.42 cm^−1, MT/Va 16.7 μg/ml) it was 37.52 cm/s × 10^4; in data set [3] (Exp. 6, Fig 3(d), Apparatus 1, pH 6.3, 77 rpm, A/Va 0.42 cm^−1, MT/Va 16.7 μg/ml) it was 30.81 cm/s × 10^4; in data set [3] (Exp. 7, Fig 4(a), Apparatus 2, pH 5.0, 75 rpm, A/Va 0.30 cm^−1, MT/Va 25.0 μg/ml), 19.08 cm/s × 10^4; in data set [3] (Exp. 8, Fig 4(b), Apparatus 2, pH 6.8, 75 rpm, A/Va 0.30 cm^−1, MT/Va 50.0 μg/ml), 28.73 cm/s × 10^4. Also, the “PI × 10^4 (best fit)” value in data set [3] (Exp. 9, Fig 4(c), Apparatus 2, pH 6.8, 75 rpm, A/Va 0.30 cm^−1, MT/Va 25.0 μg/ml) was determined as 26.85 cm/s × 10^4. Besides, the Absorbed in humans in data set [1] (in vivo) is given as over 99%.
Regarding `CCCC(CCC)C(=O)O` [Valproic acid], the “Fa (fraction absorbed in vivo), actual” value in data set [1] (humans, oral solutions) is listed as 1. In addition, in data set [1] (humans, oral solutions, printed value = ka × 10^4), the “ka × 10^4 (first-order absorption rate constant), decon.” value is given as 11.5 s^−1.
Take `CN1C(C(=O)Nc2ccccn2)=C(O)c2ccccc2S1(=O)=O` [Piroxicam]: the “pKa at 37 °C (basic)” value in data set [4] was 2.3 (basic)^c. Further, the “Intrinsic solubility at 37 °C” value in data set [5] is reported as 6.6 × 10^−5f M. In addition, the “Log D” value is given as “pH 1.2: 0.92^f” in data set [6] (pH 1.2) and “pH 7.5: 0.8^g” in data set [6] (pH 7.5). Moreover, the Apparent partition coefficient in data set [6] (pH 7.5, 37 °C, ref Yazdanian et al. 27) is recorded as 0.8.
